Where two headings read alike, the source gives them in different places.
Tests used:
[1] = system: human nasal tissue mast cells activated with LPS; experiment: Ex vivo LPS-induced tryptase release (degranulation) of human nasal tissue mast cells; assay type: cell-based; details: for Tryptase: with LPS; for inhibition at 3 µM / inhibition at 10 µM / inhibition at 30 µM / inhibition at 60 µM / IC50: Homo sapiens, Mast cell; for inhibition at 3 µM / inhibition at 10 µM / inhibition at 30 µM / inhibition at 60 µM: read-out: percentage inhibition of degranulation (tryptase); for IC50: read-out: IC50 ex vivo inhibition of tryptase release; for HillSlope / LogIC50: LPS
Description: (§1) Fresh human nasal mucosa was used (middle nasal turbinate), which was surgically removed as standard procedure during nose correction surgeries (septorhinoplasty with conchotomy). Only tissues from those patients who had not previously received medication in the form of cortisone preparations or antihistamines were used. The removed tissue was cleansed immediately after the surgical removal with Epilife Medium (Thermo Fisher Scientific, No. […]500), referred to as “medium” in terms of ex vivo experiments, a chemically defined, serum-free full medium for epithelial cells and keratinocytes. The tissue was then cut into 12 pieces of equal size, cleansed again in the medium, and the exact fresh weight of the cut tissue pieces was determined for later normalization and then stored overnight in cold medium. The weight of the tissue pieces varied between 10 and 20 mg.
After an one hour of pre-incubation with the respective compositions i), ii) or iii), 4 μg/ml lipopolysaccharide (LPS, Sigma-Aldrich GmbH, L4516) was added to each well—except for one well serving as the negative control—in order to induce tryptase degranulation. Then, 250 μl supernatant were taken from each well at the time points of 15 minutes, 60 minutes (one hour), 120 minutes (two hours), 240 minutes (four hours), 480 minutes (eight hours), and 1200 minutes (20 hours) after stimulation with LPS and the supernatants were directly frozen. Immediately after the removal of 250 μl supernatant, the volume in each well was increased to the original level and the original composition by adding 250 μl of the respective composition i), ii) and iii).
(§2) For the determination of the amount of degranulated tryptase, the frozen supernatants were thawed at 22° C. and then subjected to a tryptase ELISA Kit from Boster Biological Technology Co., Ltd (No. EZ0898, Assay Range: 156-10000 pg/ml, Sensitivity: <15 pg/ml) according to manufacturer's instructions, and the ELISA measurements were performed with the Multiskan Go instrument from Thermo Scientific and the SkanIt Re 4.1 software.
(§3) The statistical analysis was conducted in two steps. In a first step, the raw measurement values were normalized to 10 mg tissue. In a second step, a correction factor was introduced for all time points of supernatant removal to compensate for the 250 μl supernatant taken for analysis at each time and the subsequent re-addition of medium incl. factors. The statistical calculations were performed with Microsoft Excel 2010.
(§4) For the analysis, a non-linear regression (variable slope—4-parametric) was used. The program setting “Dose-Response-Inhibition” was applied for an automatic calculation, readout and display of the IC50 values.

[2] = system: human nasal tissue mast cells activated with SCF; experiment: Ex vivo SCF-induced tryptase release (degranulation) of human nasal tissue mast cells; assay type: cell-based; details: for Tryptase: with SCF; for inhibition at 1 µM / inhibition at 3 µM / inhibition at 10 µM / inhibition at 30 µM / inhibition at 60 µM / inhibition at 150 µM / inhibition at 300 µM / IC50: Homo sapiens, Mast cell; for inhibition at 1 µM / inhibition at 3 µM / inhibition at 10 µM / inhibition at 30 µM / inhibition at 60 µM / inhibition at 150 µM / inhibition at 300 µM: read-out: percentage inhibition of degranulation (tryptase); for IC50: read-out: IC50 ex vivo inhibition of tryptase degranulation; for HillSlope / LogIC50: SCF
Description: as §1
After an one hour of pre-incubation with the respective compositions i) or ii), 0.4 μg/ml stem cell growth factor (SCF, Peprotech) was added to each well—except for one well serving as the negative control—in order to induce tryptase degranulation. […] Immediately after the removal of 250 μl supernatant, the volume in each well was increased to the original level and the original composition by adding 250 μl of the respective composition i), and ii).
as §2, §3, §4

[3] = summary statement, mast cells of human nasal pieces

CCNC1=Nc2ccc(Cl)cc2C(C)(c2ccccc2)O1 (racemic) [Etifoxine, 6-Chloro-2-N-ethyl-4-methyl-4-phenyl-4H-3,1-benzoxazine-2-amine]
Tryptase ([1]; 3 μM Etifoxine, 15 min): 1107.7 pg/ml/10 mg tissue | Tryptase ([1]; 3 μM Etifoxine, 60 min): 1822.9 pg/ml/10 mg tissue | Tryptase ([1]; 3 μM Etifoxine, 120 min): 2116.7 pg/ml/10 mg tissue | Tryptase ([1]; 3 μM Etifoxine, 240 min): 3032.7 pg/ml/10 mg tissue | Tryptase ([1]; 3 μM Etifoxine, 480 min): 3622.0 pg/ml/10 mg tissue | Tryptase ([1]; 3 μM Etifoxine, 1200 min): 5419.5 pg/ml/10 mg tissue | Tryptase ([1]; 10 μM Etifoxine, 15 min): 763.6 pg/ml/10 mg tissue | Tryptase ([1]; 10 μM Etifoxine, 60 min): 1252.6 pg/ml/10 mg tissue | Tryptase ([1]; 10 μM Etifoxine, 120 min): 2035.3 pg/ml/10 mg tissue | Tryptase ([1]; 10 μM Etifoxine, 240 min): 2901.8 pg/ml/10 mg tissue | Tryptase ([1]; 10 μM Etifoxine, 480 min): 3275.1 pg/ml/10 mg tissue | Tryptase ([1]; 10 μM Etifoxine, 1200 min): 4687.0 pg/ml/10 mg tissue | Tryptase ([1]; 30 μM Etifoxine, 15 min): 676.0 pg/ml/10 mg tissue | Tryptase ([1]; 30 μM Etifoxine, 60 min): 857.5 pg/ml/10 mg tissue | Tryptase ([1]; 30 μM Etifoxine, 120 min): 1619.4 pg/ml/10 mg tissue | Tryptase ([1]; 30 μM Etifoxine, 240 min): 2276.4 pg/ml/10 mg tissue | Tryptase ([1]; 30 μM Etifoxine, 480 min): 2678.2 pg/ml/10 mg tissue | Tryptase ([1]; 30 μM Etifoxine, 1200 min): 3675.9 pg/ml/10 mg tissue | Tryptase ([1]; 60 μM Etifoxine, 15 min): 881.1 pg/ml/10 mg tissue | Tryptase ([1]; 60 μM Etifoxine, 60 min): 1054.5 pg/ml/10 mg tissue | Tryptase ([1]; 60 μM Etifoxine, 120 min): 1592.2 pg/ml/10 mg tissue | Tryptase ([1]; 60 μM Etifoxine, 240 min): 2241.2 pg/ml/10 mg tissue | Tryptase ([1]; 60 μM Etifoxine, 480 min): 2720.1 pg/ml/10 mg tissue | Tryptase ([1]; 60 μM Etifoxine, 1200 min): 3472.1 pg/ml/10 mg tissue | inhibition at 3 µM ([1]; 2 h): 79% | inhibition at 10 µM ([1]; 2 h): 83% | inhibition at 30 µM ([1]; 2 h): 105% | inhibition at 60 µM ([1]; 2 h): 106% | inhibition at 3 µM ([1]; 4 h): 104% | inhibition at 10 µM ([1]; 4 h): 107% | inhibition at 30 µM ([1]; 4 h): 123% | inhibition at 60 µM ([1]; 4 h): 124% | IC50 ([1]; 2 hours (120 minutes) after LPS addition): 14.7 µM | IC50 ([1]; 4 hours (240 minutes) after LPS addition): 15.1 µM | HillSlope ([1]; Tryptase 2 h): −4.183 | LogIC50 ([1]; Tryptase 2 h): 1.168 | HillSlope ([1]; Tryptase 4 h): −4.101 | LogIC50 ([1]; Tryptase 4 h): 1.179 | inhibition of LPS-triggered tryptase degranulation achieved (complete) [1, 3]: 100% | Tryptase ([2]; 1 μM Etifoxine, 120 min): 12.1 pg/ml/10 mg tissue | Tryptase ([2]; 1 μM Etifoxine, 240 min): 1113.7 pg/ml/10 mg tissue | Tryptase ([2]; 1 μM Etifoxine, 480 min): 1791.7 pg/ml/10 mg tissue | Tryptase ([2]; 1 μM Etifoxine, 1440 min): 5547.4 pg/ml/10 mg tissue | Tryptase ([2]; 3 μM Etifoxine, 120 min): 38.7 pg/ml/10 mg tissue | Tryptase ([2]; 3 μM Etifoxine, 240 min): 1030.3 pg/ml/10 mg tissue | Tryptase ([2]; 3 μM Etifoxine, 480 min): 1789.0 pg/ml/10 mg tissue | Tryptase ([2]; 3 μM Etifoxine, 1440 min): 5512.9 pg/ml/10 mg tissue | Tryptase ([2]; 10 μM Etifoxine, 120 min): 71.9 pg/ml/10 mg tissue | Tryptase ([2]; 10 μM Etifoxine, 240 min): 594.5 pg/ml/10 mg tissue | Tryptase ([2]; 10 μM Etifoxine, 480 min): 1284.9 pg/ml/10 mg tissue | Tryptase ([2]; 10 μM Etifoxine, 1440 min): 3185.9 pg/ml/10 mg tissue | Tryptase ([2]; 30 μM Etifoxine, 120 min): 109.4 pg/ml/10 mg tissue | Tryptase ([2]; 30 μM Etifoxine, 240 min): 449.9 pg/ml/10 mg tissue | Tryptase ([2]; 30 μM Etifoxine, 480 min): 979.7 pg/ml/10 mg tissue | Tryptase ([2]; 30 μM Etifoxine, 1440 min): 2400.2 pg/ml/10 mg tissue | Tryptase ([2]; 60 μM Etifoxine): 1218.2 pg/ml/10 mg tissue | Tryptase ([2]; 60 μM Etifoxine, 120 min): 152.7 pg/ml/10 mg tissue | Tryptase ([2]; 60 μM Etifoxine, 240 min): 345.9 pg/ml/10 mg tissue | Tryptase ([2]; 60 μM Etifoxine, 480 min): 689.7 pg/ml/10 mg tissue | Tryptase ([2]; 150 μM Etifoxine): 1040.1 pg/ml/10 mg tissue | Tryptase ([2]; 150 μM Etifoxine, 120 min): 163.3 pg/ml/10 mg tissue | Tryptase ([2]; 150 μM Etifoxine, 240 min): 576.8 pg/ml/10 mg tissue | Tryptase ([2]; 150 μM Etifoxine, 480 min): 1042.4 pg/ml/10 mg tissue | Tryptase ([2]; 300 μM Etifoxine, 120 min): 71.9 pg/ml/10 mg tissue | Tryptase ([2]; 300 μM Etifoxine, 240 min): 459.3 pg/ml/10 mg tissue | Tryptase ([2]; 300 μM Etifoxine, 480 min): 991.8 pg/ml/10 mg tissue | Tryptase ([2]; 300 μM Etifoxine, 1440 min): 559.4 pg/ml/10 mg tissue | inhibition at 1 µM ([2]; 4 h): 0% | inhibition at 3 µM ([2]; 4 h): 0% | inhibition at 10 µM ([2]; 4 h): 15% | inhibition at 30 µM ([2]; 4 h): 56% | inhibition at 60 µM ([2]; 4 h): 85% | inhibition at 150 µM ([2]; 4 h): 21% | inhibition at 300 µM ([2]; 4 h): 53% | inhibition at 1 µM ([2]; 8 h): 0% | inhibition at 3 µM ([2]; 8 h): 0% | inhibition at 10 µM ([2]; 8 h): 28% | inhibition at 30 µM ([2]; 8 h): 90% | inhibition at 60 µM ([2]; 8 h): 148% | inhibition at 150 µM ([2]; 8 h): 77% | inhibition at 300 µM ([2]; 8 h): 87% | IC50 ([2]; 4 hours after SCF addition): 6.12 µM | IC50 ([2]; 8 hours after SCF addition): 9.07 µM | HillSlope ([2]; Tryptase 4 h): −2.791 | LogIC50 ([2]; Tryptase 4 h): 0.7865 | HillSlope ([2]; Tryptase 8 h): −3.492 | LogIC50 ([2]; Tryptase 8 h): 0.9578 | inhibition of SCF-triggered tryptase release (degranulation) achieved (complete) [2, 3]: 100%
